Laboratory results as given in patent US9133122B2, “Amide compounds, compositions and uses thereof” (EVOTEC AG, priority 2008, dated 2015).

Tests used:
hP2X2/3H = biological target: T1, hP2X2/3H (Homo sapiens, UniProt P56373+Q9UBL9); experiment: Calcium uptake assay (Ca influx), P2X antagonist assay, P2X2/3 heteromer; format: cell-based; details: inhibition of agonist-induced calcium influx
T1 construct: expressed in transfected cells
T1 sequence (P56373 1-397): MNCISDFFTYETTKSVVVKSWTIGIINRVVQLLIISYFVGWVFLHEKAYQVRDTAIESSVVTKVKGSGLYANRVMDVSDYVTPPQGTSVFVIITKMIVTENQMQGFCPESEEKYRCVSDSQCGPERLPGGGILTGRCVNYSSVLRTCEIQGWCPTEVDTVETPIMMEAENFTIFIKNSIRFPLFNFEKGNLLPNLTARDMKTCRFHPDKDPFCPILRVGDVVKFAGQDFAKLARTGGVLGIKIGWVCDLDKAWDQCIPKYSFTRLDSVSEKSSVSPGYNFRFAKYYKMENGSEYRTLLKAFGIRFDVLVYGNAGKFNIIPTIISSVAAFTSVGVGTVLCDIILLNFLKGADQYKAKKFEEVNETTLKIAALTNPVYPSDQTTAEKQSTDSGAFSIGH
T1 sequence (Q9UBL9 1-471): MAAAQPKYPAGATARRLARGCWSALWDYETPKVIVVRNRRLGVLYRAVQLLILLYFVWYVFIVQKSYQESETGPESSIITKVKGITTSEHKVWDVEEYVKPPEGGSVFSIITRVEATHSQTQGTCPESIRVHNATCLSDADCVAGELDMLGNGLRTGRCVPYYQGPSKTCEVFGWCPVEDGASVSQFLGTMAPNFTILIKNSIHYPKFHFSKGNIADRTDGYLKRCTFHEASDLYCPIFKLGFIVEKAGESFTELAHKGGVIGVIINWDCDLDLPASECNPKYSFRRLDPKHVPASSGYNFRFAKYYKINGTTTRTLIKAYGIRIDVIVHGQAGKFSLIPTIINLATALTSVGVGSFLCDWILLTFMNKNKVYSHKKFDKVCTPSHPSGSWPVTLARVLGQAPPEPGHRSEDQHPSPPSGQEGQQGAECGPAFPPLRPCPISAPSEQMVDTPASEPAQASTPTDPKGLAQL
Excerpt: (§1) Human P2X3 (Accession no. NM_002559), P2X2 (Accession no. NM_170682) and Rat P2X3 (Accession no. NM_031075) and P2X2 (Accession no. NM_053656) are cloned into a mammalian expression vector (e.g., pcDNAS/TO or pcDNA3 Invitrogen). The human P2X2/3 chimera clone is created as described by Neelands et al, and then cloned into an expression vector as above. Receptors are expressed in cells (e.g., HEK293 or 1321N1 (obtained from the ECACC)) via transient transfection using standard lipid mediated transfection, or by creation of stable transfectants for each receptor. For expression of the P2X2/3 heteromeric receptor, the P2X3 expression vector is stably transfected into a cell line already stably expressing P2X2. P2X2/3 heteromer function is isolated using pharmacological methods. Cell lines are maintained in DMEM+5% Glutamax, the appropriate level of selective antibiotic, and 10% heat inactivated FBS.
(§2) Functional activity of compounds at the P2X receptor is determined by measuring their ability to inhibit agonist-induced calcium influx. Compounds are tested for antagonist activity against the P2X2/3 chimera, the P2X3 homomer, or the P2X2/3 heteromer. At the start of each screening day, the agonist EC50 is determined. Compound % inhibition or IC50s are subsequently determined using a predetermined agonist concentration (EC50-90 depending on cell line) as a stimulus. The agonists used are αβMeATP, ATP, or other ATP analogs. Compounds may be tested at concentrations ranging from 1 pM to 10 μM.
(§3) To test for antagonist activity, cells expressing the appropriate receptor are seeded onto 96 or 384 well plates 18-24 hours prior to assay. On the day of the assay, cells are loaded with calcium-sensitive fluorescent dye (e.g., Fluo-4 no wash reagent-Invitrogen cat#F36206, or the BD™ PBX Calcium Assay Kit-BD cat #640175) in Hank's Buffered Salt Solution (HBSS) with up to 10 mM supplemental CaCl2. Plates are incubated at 37° C. and then equilibrated at room temperature. Antagonism of agonist-induced calcium influx is measured using a fluorescent imaging plate reader (e.g. FLIPR^TETRA, Molecular Devices, Sunnyvale, Calif.). The assay comprises two stages: a pre-treatment phase followed by a treatment phase. Compounds may be tested as follows: For the pre-treatment phase, 50 μL of 3× concentration of test compound in HBSS is added to cells containing 100 μL of dye loading media to achieve a final concentration of 1× test compound. For the treatment phase, at a set interval after pre-treatment (1-30 minutes), 50 μL of 1× test compound plus 4× agonist solution is added, resulting in a final concentration of 1× compound and 1× agonist. Fluorescence is measured at 0.1-3 second intervals—with an excitation wavelength of 494 nm and an emission wavelength of 515 nm. Responses are measured as (peak fluorescence after agonist addition) minus (baseline fluorescence prior to treatment). Percent inhibition is calculated as follows:
(§4) [formula] IC50 values are determined by analyzing dose response data in a 4 parameter logistic fit using GraphPad Prizm.
(§5) The following compounds have been or can be prepared according to the synthetic methods described herein. A calcium uptake assay was performed as described above and the activity of each compound is expressed as follows: […]

hP2X3 = biological target: T2, hP2X3 (Homo sapiens, UniProt P56373); experiment: Calcium uptake assay (Ca influx), P2X antagonist assay, P2X3 homomer; format: cell-based; details: inhibition of agonist-induced calcium influx
T2 construct: expressed in transfected cells
T2 sequence (P56373 1-397): T1 sequence (P56373 1-397)
Excerpt: as §1, §2, §3, §4, §5

SMILES	IC50 (hP2X2/3H) [nM]	IC50 (hP2X3) [nM]
Cc1ccc(-c2cc(C(=O)NCc3ccc(C)nc3)cc(-c3ccccc3CN(C)C)c2)nc1 [Compound 28, 2′-Dimethylaminomethyl-5-(5-methyl-pyridin-2-yl)-biphenyl-3-carboxylic acid (6-methyl-pyridin-3-ylmethyl)-amide]	83.5	66
Cc1ccc(-c2cc(C(=O)N[C@H](C)c3cnc(C)nc3)cc(N3CCCCC3=O)c2)nc1 [Compound 56, 3-(5-Methyl-pyridin-2-yl)-N-[(R)-1-(2-methyl-pyrimidin-5-yl)-ethyl]-5-(2-oxo-piperidin-1-yl)-benzamide]	418	95.9
Cc1ccc(-c2cc(C(=O)N[C@H](C)CN3CCOCC3)cc(-c3cccc(F)c3F)c2)nc1 [Compound 77, (R)-2′,3′-difluoro-5-(5-methylpyridin-2-yl)-N-(1-morpholinopropan-2-yl)biphenyl-3-carboxamide]	373	99.5
COc1ccc(-c2cc(C(=O)NCc3ccc(C)nc3)cc(-c3ccc(C)cc3)c2)cc1 [Compound 7, 4″-Methoxy-4-methyl-[1,1′;3′,1″]terphenyl-5′-carboxylic acid (6-methyl-pyridin-3-ylmethyl)-amide]	9200	2460
COc1ccc(-c2cc(C(=O)NCc3ccc(C)nc3)cc(-c3ccc(C)cc3)c2)cc1OC [Compound 10, 3″,4″-Dimethoxy-4-methyl-[1,1′;3′,1″]terphenyl-5′-carboxylic acid (6-methyl-pyridin-3-ylmethyl)-amide]	1270	759
Cc1ccc(-c2cc(C(=O)NCc3ccc(C)nc3)cc(N3CCC[C@@H]3CO)c2)cc1 [Compound 62, 5-((R)-2-Hydroxymethyl-pyrrolidin-1-yl)-4′-methyl-biphenyl-3-carboxylic acid (6-methyl-pyridin-3-ylmethyl)-amide]	47.4	45.7
Cc1ccc(-c2cc(C(=O)N[C@H](C)c3cnc(C)nc3)cc(-c3ccccc3CO)c2)nc1 [Compound 34, 2′-Hydroxymethyl-5-(5-methyl-pyridin-2-yl)-biphenyl-3-carboxylic acid [(R)-1-(2-methyl-pyrimidin-5-yl)-ethyl]-amide]	18.4	21.1
Cc1ccc(-c2cc(C(=O)N[C@H](C)c3cnc(C)nc3)cc(-c3ccccc3C#N)c2)nc1 [Compound 31, 2′-Cyano-5-(5-methyl-pyridin-2-yl)-biphenyl-3-carboxylic acid [(R)-1-(2-methyl-pyrimidin-5-yl)-ethyl]-amide]	17.6	14.2
Cc1ccc(-c2cc(C(=O)NCc3ccc(C)nc3)cc(-c3ccccc3C#N)c2)nc1 [Compound 17, 2′-Cyano-5-(5-methyl-pyridin-2-yl)-biphenyl-3-carboxylic acid (6-methyl-pyridin-3-ylmethyl)-amide]	24.5	21.6
Cc1ccc(-c2cc(C(=O)NCc3cnc(C)nc3)cc(N3CCNCC3=O)c2)c(C#N)c1 [Compound 66, 2′-Cyano-4′-methyl-5-(2-oxo-piperazin-1-yl)-biphenyl-3-carboxylic acid (2-methyl-pyrimidin-5-ylmethyl)-amide]	729	85.8
Cc1ccc(-c2cc(C(=O)N[C@H](C)c3ccc(C)nc3)cc(N3CCCCC3=O)c2)cc1 [Compound 40, (R)-4′-Methyl-N-(1-(6-methylpyridin-3-yl)ethyl)-5-(2-oxopiperidin-1-yl)biphenyl-3-carboxamide]	52.7	26.3
Cc1ccc(-c2cc(C(=O)NCc3ccc(C)nc3)cc(N3CCN(C)CC3=O)c2)c(C#N)c1 [Compound 67, 2′-Cyano-4′-methyl-5-(4-methyl-2-oxo-piperazin-1-yl)-biphenyl-3-carboxylic acid (6-methyl-pyridin-3-ylmethyl)-amide]	667	102
Cc1ccc(-c2cc(C(=O)NCc3ccc(C)nc3)cc(N3CCNCC3=O)c2)cc1 [Compound 61, 4′-Methyl-5-(2-oxo-piperazin-1-yl)-biphenyl-3-carboxylic acid (6-methyl-pyridin-3-ylmethyl)-amide]	2350	268
COc1ncc(-c2cc(C(=O)NCc3ccc(C)nc3)cc(-c3ccc(C)cc3)c2)cn1 [Compound 12, 5-(2-Methoxy-pyrimidin-5-yl)-4′-methyl-biphenyl-3-carboxylic acid (6-methyl-pyridin-3-ylmethyl)-amide]	291	292
Cc1ccc(-c2cc(C(=O)N[C@H](C)c3cnc(C)nc3)cc(-c3cccc(F)c3C#N)c2)nc1 [Compound 52, 2′-Cyano-3′-fluoro-5-(5-methyl-pyridin-2-yl)-biphenyl-3-carboxylic acid [(R)-1-(2-methyl-pyrimidin-5-yl)-ethyl]-amide]	37.5	26.2
Cc1ccc(-c2cc(C(=O)NCc3ccc(C)nc3)cc(-c3ccccc3F)c2)nc1 [Compound 15, 2′-Fluoro-5-(5-methyl-pyridin-2-yl)-biphenyl-3-carboxylic acid (6-methyl-pyridin-3-ylmethyl)-amide]	54.9	73.2
Cc1ccc(-c2cc(C(=O)N[C@H](C)c3cnc(C)nc3)cc(N3CCOCC3=O)c2)nc1 [Compound 57, 3-(5-Methyl-pyridin-2-yl)-N-[(R)-1-(2-methyl-pyrimidin-5-yl)-ethyl]-5-(3-oxo-morpholin-4-yl)-benzamide]	527	89.2
Cc1ccc(-c2cc(C(=O)NCc3ccc(C)nc3)cc(-c3cccnc3C#N)c2)nc1 [Compound 42, 3-(2-Cyano-pyridin-3-yl)-5-(5-methyl-pyridin-2-yl)-N-(6-methyl-pyridin-3-ylmethyl)-benzamide]	50.5	15.1
Cc1ccc(-c2cc(C(=O)NCc3ccc(C)nc3)cc(N3CCC[C@H]3CO)c2)cc1 [Compound 59, (S)-5-(2-(Hydroxymethyl)pyrrolidin-1-yl)-4′-methyl-N-((6-methylpyridin-3-yl)methyl)biphenyl-3-carboxamide]	127	65.8
Cc1ccc(-c2cc(C(=O)NCc3ccc(C)nc3)cc(-c3ccccc3F)c2)cc1 [Compound 6, 2″-Fluoro-4-methyl-[1,1′;3′,1″]terphenyl-5′-carboxylic acid (6-methyl-pyridin-3-ylmethyl)-amide]	418	342
COCc1ccccc1-c1cc(C(=O)N[C@H](C)c2cnc(C)nc2)cc(-c2ccccn2)c1 [Compound 53, 2′-Methoxymethyl-5-pyridin-2-yl-biphenyl-3-carboxylic acid [(R)-1-(2-methyl-pyrimidin-5-yl)-ethyl]-amide]	295	62.6
